Source: patent publication US20060281728A1, “3-Substituted beta-lactamyl vasopressin v1a antagonists” (priority 2003, published 2006)

Target: human V1a receptor (Homo sapiens, UniProt P37288)
Assay: Human vasopressin V1a receptor binding assay
Settings: competitive binding against 1 nM 3H-AVP, hV1a cell line (CHO cells), 45 minutes at 37° C.
Protocol: A cell line expressing the human V1a receptor in CHO cells (henceforth referred to as the hV1a cell line) was obtained from Dr. Michael Brownstein, NIMH, Bethesda, Md., USA. The hV1a cDNA sequence is described by Thibonnier et al., Journal of Biological Chemistry, 269:3304-3310 (1994), and the expression method was the same as described by Morel et al. (1992). The hV1a cell line was grown in alpha-MEM with 10% fetal bovine serum and 250 ug/ml G418 (Gibco, Grand Island, N.Y., USA). For competitive binding assay, hV1a cells were plated into 6-well culture plate at 1:10 dilution from a confluency flask, and maintained in culture for at least two days. Culture medium was then removed, cells were washed with 2 ml binding buffer (25 mM Hepes, 0.25% BSA, 1×DMEM, PH=7.0). To each well, 990 μl binding buffer containing 1 nM 3H-AVP was added, and followed by 10 μl series diluted Example compounds dissolved in DMSO. All incubations were in triplicate, and dose-inhibition curves consisted of total binding (DMSO) and 5 concentrations (0.1, 1.0, 10, 100, and 1000 nM) of test agents encompassing the IC50. 100 nM cold AVP (Sigma) was used to assess non-specific binding. […] Samples were counted in a liquid scintillation counter (Beckman LS3801). IC50 values were calculated by Prism Curve fitting software.

Sequence of human V1a receptor (P37288 whole entry): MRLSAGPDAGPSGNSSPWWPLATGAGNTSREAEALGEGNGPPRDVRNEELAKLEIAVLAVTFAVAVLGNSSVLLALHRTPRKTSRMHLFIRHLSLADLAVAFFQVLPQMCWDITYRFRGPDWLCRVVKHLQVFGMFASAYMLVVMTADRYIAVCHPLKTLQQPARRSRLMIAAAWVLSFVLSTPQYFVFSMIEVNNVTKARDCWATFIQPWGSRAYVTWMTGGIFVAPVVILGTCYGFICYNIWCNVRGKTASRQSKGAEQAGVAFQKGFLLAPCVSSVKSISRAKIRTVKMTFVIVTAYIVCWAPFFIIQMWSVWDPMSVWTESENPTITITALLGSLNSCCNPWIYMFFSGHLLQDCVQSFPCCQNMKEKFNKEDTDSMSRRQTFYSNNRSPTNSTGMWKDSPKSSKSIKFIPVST

IC50: 5 nM
Structure (SMILES): C[C@@]1(N2C(=O)OC[C@@H]2c2ccccc2)C(=O)N([C@H](CC(=O)N2CCC(N3CCCCC3)CC2)C(=O)NCc2cccc(C(F)(F)F)c2)[C@@H]1/C=C/c1ccccc1 [Example 33, 4-(Piperidin-1-yl)-piperidin-1-yl 3(R)-[3(S)-(4(S)-phenyloxazolidin-2-on-3-yl)-3-methyl-4(R)-(styr-2-yl)azetidin-2-on-1-yl]-3-[(3-trifluoromethyl)phenylmethylaminocarbonyl]propanoic acid]
